The assay concerns P388. Kind of assay: Growth inhibition of mouse P388 cells. In kind it is functional. The following applies: read-out: ED50 (the source's name).

Structures are written as SMILES. ≈ marks a conversion by molar mass, not a printed value.

`CC/C(=C\[C@@]1(CC)C[C@H](CC)[C@H](CC(=O)OC)OO1)[C@H]1O[C@H]1CC` (single isomer, unassigned) [PLAKORSTATIN 1]: the EC50 came out at 1.1 µg/mL (≈ 3.23 µM). Take `CC/C(=C\[C@@]1(CC)C[C@H](CC)[C@H](CC(=O)OC)OO1)[C@@H]1O[C@@H]1CC` (single isomer, unassigned) [PLAKORSTATIN 2]: the EC50 turned out to be 0.91 µg/mL (≈ 2.67 µM).

For the origin of these results see ChEMBL document CHEMBL1148909, “Antineoplastic agents. 535. Isolation and structure of plakorstatins 1 and 2 from the Indo-Pacific sponge Plakortis nigra” (2004).
